Data as given in ChEMBL document CHEMBL1133791, “Intracellular inhibition of human neutrophil elastase by orally active pyrrolidine-trans-lactams” (Bioorg Med Chem Lett, 2001).
Residues, ends and D or L forms follow the SMILES beside them. *: point of attachment. CF3 = FC(F)(F)*; Moc = COC(=O)*

Key:
[1] = Bioavailability after po administration at 4 mg/kg in hamster; type: ADME, organism-based, Cricetulus griseus; conditions: chinese hamster, in vivo
Hamster [2] = assay: Plasma clearance after iv administration at 4 mg/kg in hamster; type: ADME, organism-based; parameters: dose 4 mg/kg, route intravenous; conditions: cricetinae, in vivo
[3] = Half life after iv administration at 4 mg/kg in hamster; type: ADME, organism-based; parameters: dose 4 mg/kg, route intravenous; conditions: cricetinae, in vivo
[4] = target: T1, Neutrophil elastase (Homo sapiens) (UniProt P08246); assay: Compound was evaluated in vivo for the inhibition of elastase in hamster bronchoalveolar lavage (BAL) 6 hour after an intratracheal dose of IL-8 at a concentration 10 mg/kg; type: organism-based; parameters: dose 10 mg/kg; conditions: Cricetulus griseus; Lung
T1 sequence (whole entry): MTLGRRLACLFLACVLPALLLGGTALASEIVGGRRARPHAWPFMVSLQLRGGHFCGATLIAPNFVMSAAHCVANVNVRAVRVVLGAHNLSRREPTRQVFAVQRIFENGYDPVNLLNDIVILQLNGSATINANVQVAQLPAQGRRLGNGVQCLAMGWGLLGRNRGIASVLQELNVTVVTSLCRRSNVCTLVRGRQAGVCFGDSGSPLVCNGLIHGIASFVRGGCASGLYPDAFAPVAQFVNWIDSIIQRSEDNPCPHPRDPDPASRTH

[5] = target: T1, Neutrophil elastase (Homo sapiens); assay: Compound was evaluated in vivo for the inhibition of elastase in hamster bronchoalveolar lavage (BAL) 6 hour after an intratracheal dose of IL-8 at a concentration 20 mg/kg; type: organism-based; parameters: dose 20 mg/kg; conditions: Cricetulus griseus; Lung
Neutrophil elastase [6] = target: T2, Neutrophil elastase (Homo sapiens, UniProt P08246); assay: In vitro inhibitory activity against human neutrophil elastase (HNE)
T2 sequence (P08246 whole entry): T1 sequence (whole entry)

[7] = target: T1, Neutrophil elastase (Homo sapiens); assay: Compound was evaluated in vivo for the inhibition of elastase in hamster bronchoalveolar lavage (BAL) 6 hour after an intratracheal dose of IL-8 at a concentration 40 mg/kg; type: organism-based; parameters: dose 40 mg/kg; conditions: Cricetulus griseus; Lung
[8] = Volume distribution after iv administration at 4 mg/kg in hamster; type: ADME, organism-based; parameters: dose 4 mg/kg, route intravenous; conditions: cricetinae, in vivo
[9] = Solubility in water was evaluated.; type: physicochemical
[10] = target: T1, Neutrophil elastase (Homo sapiens); assay: In vitro inhibition of human whole blood (HWB) elastase at a concentration of 10 uM
Neutrophil elastase [11] = target: T2, Neutrophil elastase; assay: In vitro inhibitory activity in human whole blood (HWB) elastase at a concentration of 10; type: tissue-based
[12] = target: T1, Neutrophil elastase (Homo sapiens); assay: In vitro inhibition of human whole blood (HWB) elastase at a concentration of 10 uM except in buffer
[13] = target: T1, Neutrophil elastase (Homo sapiens); assay: In vitro percent inhibition of human whole blood (HWB) elastase at a concentration of 10 uM except in plasma; type: tissue-based
[14] = Volume distribution after iv administration at 3 mg/kg in hamster; type: ADME, organism-based; parameters: dose 3 mg/kg, route intravenous; conditions: cricetinae, in vivo
[15] = Bioavailability after po administration of 10 mg/kg in hamster; type: ADME, organism-based, Cricetulus griseus; conditions: chinese hamster, in vivo
Hamster [16] = assay: Plasma clearance after iv administration at 3 mg/kg in hamster; type: ADME, organism-based; parameters: dose 3 mg/kg, route intravenous; conditions: cricetinae, in vivo
[17] = target: T1, Neutrophil elastase (Homo sapiens); conditions: Cricetulus griseus; Liver; Microsome; 20 mg/kg
Description: Compound was evaluated for the inhibition of elastase in hamster liver microsomes at a concentration of 20 mg/kg

[18] = target: T1, Neutrophil elastase (Homo sapiens); conditions: Cricetulus griseus; Liver; Microsome; 10 mg/kg
Description: Compound was evaluated for the inhibition of elastase in hamster liver microsomes at a concentration of 10 mg/kg

[19] = Half life after iv administration at 3 mg/kg in hamster; type: ADME, organism-based; parameters: dose 3 mg/kg, route intravenous; conditions: cricetinae, in vivo
[20] = Half life after po administration of 10 mg/kg in hamster; type: ADME, organism-based; parameters: dose 10 mg/kg, route oral; conditions: cricetinae, in vivo
Neutrophil elastase [21] = target: T2, Neutrophil elastase; assay: In vitro inhibitory activity in human whole blood (HWB) elastase; type: tissue-based

With `CCC[C@H]1C(=O)N(S(=O)(=O)c2ccc3ccccc3c2)[C@H]2CCN(C(=O)CCN3CCCCC3)[C@H]12.Cl` the bioavailability [1] was 1%, the Clp (Hamster [2]) was 200 mL/min/kg and the half-life [3] was 30 min. The inhibition [4] was 10%, the inhibition [5] was 30% and the IC50 (Neutrophil elastase [6]) was 137 nM. For the same compound, the inhibition [7] was 60%, the Vd [8] was 8.1 L/kg and the solubility [9] was > 1000 µg/mL.
In the case of `C=CC[C@H]1C(=O)N[C@H]2CCN(C(=O)OCc3ccccc3)[C@@H]21`, the IC50 (Neutrophil elastase [6]) is reported as > 500 nM.
Work on `C=CC[C@H]1C(=O)N(S(C)(=O)=O)[C@H]2CCN(C(=O)OCc3ccccc3)[C@H]12` yielded an inhibition [10] of 98%.
With `CCC[C@@H](NC(=O)N1C(=O)C(CC)(CC)[C@@H]1Oc1ccc(C(=O)N2CCN(C)CC2)cc1)c1ccc2c(c1)OCO2` the IC50 (Neutrophil elastase [11]) was 0.45 nM.
With `C=CC[C@H]1C(=O)N(C(=O)NCC)[C@H]2CCN(C(=O)OCc3ccccc3)[C@H]12` the IC50 (Neutrophil elastase [6]) was 31 nM.
Compound `C=CC[C@H]1C(=O)N(S(=O)(=O)c2ccc3ccccc3c2)[C@H]2CCN(C(=O)OCc3ccccc3)[C@H]12` has an inhibition [12] of 92% and an inhibition [13] of 23%.
`C=CC[C@H]1C(=O)N(C(=O)OCC)[C@H]2CCN(C(=O)OCc3ccccc3)[C@H]12` showed an IC50 (Neutrophil elastase [6]) of 2 nM.
In the case of `C=CC[C@H]1C(=O)N(CCCCCC)[C@H]2CCN(C(=O)OCc3ccccc3)[C@H]12`, the IC50 (Neutrophil elastase [6]) is reported as 29 nM.
With `CCC[C@H]1C(=O)N(S(C)(=O)=O)[C@H]2CCN(C(=O)CCN3CCCCC3)[C@H]12.Cl` the Vd [14] was 2.3 L/kg, the bioavailability [15] was 49% and the Clp (Hamster [16]) was 140 mL/min/kg. For the same compound, the inhibition [17] was 76%, the inhibition [18] was 41% and the IC50 (Neutrophil elastase [6]) was 140 nM. For the same compound, the half-life [19] was 12 min, the solubility [9] was > 1000 µg/mL and the half-life [20] was 30 min.
For `COC(=O)N[C@H](C(=O)N1CCC[C@H]1C(=O)N[C@H](C(=O)C(F)(F)F)C(C)C)C(C)C` (Moc-Val-Pro-Val-CF3), the IC50 (Neutrophil elastase [21]) was > 10 nM.
